What was measured:
Format in all cases: biochemical
[1] = biological target: T1, recombinant human PAI-1 (Homo sapiens, UniProt P05121); assay: Test Example 1: human PAI-1 inhibitory activity (tPA fluorogenic substrate assay, pH7.5 Tris buffer); conditions: for inhibition at 5 µM: pH 7.5, compound 5 μM; for inhibition at 5 µM / inhibition at 10 µM / inhibition at 25 µM: read-out: Inhibition Rate of Human PAI-1 Activity (%); for inhibition at 10 µM: pH 7.5, compound 10 μM; for inhibition at 25 µM: pH 7.5, compound 25 μM
T1 construct: purchased Molecular Innovations, Inc
Text: <Composition of pH7.5 Tris Buffer)
0.01% Tween80 (SIGMA-ALDRICH Corporation)

[2] = biological target: T1, recombinant human PAI-1; assay: Test Example 4: human PAI-1 inhibitory activity (amount of PAI-1 bound to plate-coated tPA, ELISA); conditions: PAI-1 50 ng/ml bound to coated tPA, read-out: Inhibition Rate of Human PAI-1 Activity (%); for inhibition at 0.1 µM: compound 0.1 μM; for inhibition at 0.3 µM: compound 0.3 μM
Description: 100 μl of tPA solution where one-chain recombinant tPA (hereinafter refereed to as tPA; American diagnostica, inc.) diluted with Buffer A to achieve a concentration of 10 μg/ml was added to each well of 96-well plate (Nunc Maxisorp), incubated for one night at […] to coated with tPA. Then, after suction of tPA solution from the 96-well plate, rinsed successively with Buffer A and Buffer B.
To Buffer B, solutions of the present application compound dissolved with DMSO (final DMSO concentration: 0.2%) and recombinant human PAI-1 (Molecular Innovations, Inc.) were added and blended so that the final concentrations would be 0.1 to 3.0 μM and 50 ng/ml respectively, and were incubated for 15 minutes on ice. These mixed solutions were added to rinsed 96-well plates at 100 μl/well, and incubated for 60 minutes at room temperature. To prepare calibration curve, PAI-1 solutions without the present application compound (solutions where the final concentrations being 100, 50, 25, 12.5, 6.25, 3.13, 1.56 ng/ml PAI-1) were added at 100 μl/well, and were incubated for 60 minutes at room temperature, as standard.
After incubation, the reaction mixture was suction removed, and rinsed each well with Wash Buffer. Next, anti-human PAI-1 monoclonal antibody (PROGEN Inc.) diluted with Buffer C to be 3.0 μg/ml was added to the 96-well plate at 100 μl/well, and incubated for 1 hour at room temperature. After rinsing each well with Wash Buffer, alkaline phosphatase-labeled goat anti-mouse IgG (H+L) (Jackson ImmunoResearch, Inc.) diluted with Buffer D to be 0.12 μg/ml was added at 100 μl/well, and incubated for 1 hour at room temperature. After rinsing each well with Wash Buffer, 1.0 mg/ml p-Nitrophenyl Phosphate (SIGMA) was added to the 96-well plate at 100 μl/well to start the reaction. After 30 to 60 minutes, 25 μl of 0.5 N NaOH was added to stop the reaction, and the absorbance was measured at 405 nm using a multiplate reader (GENios; TECAN G.M.B.H.).
Based on the calibration curve prepared from the standard wells, amounts of PAI-1 bound to tPA in the wells treated with the present application compound were calculated, and the PAI-1 inhibition rates by the present application compounds were obtained by the following equation. [PAI-1 Inhibition Rate (%)]=[1-(amount of PAI-1 bound to tPA on the well treated with the present application compound)/(amount of PAI-1 bound to tPA on the well treated with PAI-1 solution without present application compound (solution with the final concentration of 50 ng/ml PAI-1)]×100 <Composition of Buffer A> 0.1 M Tris-HCl-150 150 mM NaCl pH 7.7 <Composition of Buffer B> 50 mM sodium phosphate 0.1 M NaCl 1 mM EDTA pH 6.6 <Composition of Buffer C> 50 mM sodium phosphate 100 mM NaCl pH 7.4 <Composition of Buffer D> 0.01 M Tris-HCl 0.25 M NaCl pH 8.0 <Composition of Wash Buffer> 0.05% Tween 20 0.1% BSA in Buffer A <Composition of p-Nitrophenyl Phosphate Solution> 1 M Diethanolamine 0.5 mM MgCl2 p-Nitrophenyl phosphate pH 9.8

[3] = biological target: T1, recombinant human PAI-1; assay: Test Example 2: human PAI-1 inhibitory activity (tPA fluorogenic substrate assay, pH7.4 HEPES buffer); conditions: for inhibition at 3 µM: pH 7.4, read-out: Inhibition Rate of Human PAI-1 Activity (%); for IC50: pH7.4 HEPES buffer, obtained from Table 5 results
Description: (§1) Except using the pH7.4 HEPES buffer instead of pH7.5 Tris buffer, and the change of incubation time from 15 minutes to 10 minutes of the mixed solution added by two-chain tPA solution, tests were carried out similarly to the Test Example 1.
<Compotion of pH7.4 HEPES Buffer>
0.1% Polyethylene glycol 8,000 (Hampton Research Corporation)
2 mM Dimethyldecylphoshine oxide [Apo-10] (Fluka Corporation)

[4] = biological target: T2, recombinant rat PAI-1 (Rattus norvegicus, UniProt P20961); assay: Test Example 3: rat PAI-1 inhibitory activity (tPA fluorogenic substrate assay, pH7.4 HEPES buffer); conditions: for IC50: pH7.4 HEPES buffer, obtained from Table 7 results
T2 construct: purchased Molecular Innovations, Inc
T2 sequence (P20961 24-402): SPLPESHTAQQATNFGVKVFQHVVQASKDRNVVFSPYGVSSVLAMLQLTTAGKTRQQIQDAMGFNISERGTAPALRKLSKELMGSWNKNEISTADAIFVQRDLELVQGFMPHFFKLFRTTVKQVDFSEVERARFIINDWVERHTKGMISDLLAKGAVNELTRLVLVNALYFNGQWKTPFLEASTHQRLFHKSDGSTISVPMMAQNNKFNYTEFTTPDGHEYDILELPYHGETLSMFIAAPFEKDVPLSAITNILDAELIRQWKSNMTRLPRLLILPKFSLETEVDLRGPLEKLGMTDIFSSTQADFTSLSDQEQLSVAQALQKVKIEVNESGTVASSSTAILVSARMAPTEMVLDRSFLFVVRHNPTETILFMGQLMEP
Description: as §1

T1 sequence (P05121 24-402): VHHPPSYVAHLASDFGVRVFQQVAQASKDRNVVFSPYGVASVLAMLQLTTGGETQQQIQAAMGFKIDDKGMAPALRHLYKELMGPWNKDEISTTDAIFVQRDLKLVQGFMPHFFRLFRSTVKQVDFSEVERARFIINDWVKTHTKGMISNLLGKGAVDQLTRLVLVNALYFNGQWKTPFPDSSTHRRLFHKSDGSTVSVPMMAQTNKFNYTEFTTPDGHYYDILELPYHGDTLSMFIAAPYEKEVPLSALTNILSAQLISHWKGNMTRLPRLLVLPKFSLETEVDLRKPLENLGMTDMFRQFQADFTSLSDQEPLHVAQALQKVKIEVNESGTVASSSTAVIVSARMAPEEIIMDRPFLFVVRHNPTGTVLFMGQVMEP

| Compound | inhibition at 5 µM [1] [%] | inhibition at 10 µM [1] [%] | inhibition at 0.1 µM [2] [%] | IC50 [3] [µM] | IC50 [4] [µM] | also measured |
| --- | --- | --- | --- | --- | --- | --- |
| O=C(O)C(=O)N(Cc1ccccc1)c1ccc(-c2ccc(OC(F)(F)F)cc2)cc1 [compound 6, N-benzyl-N-[4′-(trifluoromethoxy)biphenyl-4-yl]oxamic Acid] | 6 | 12 |  |  |  |  |
| CC(C)(C)c1ccc(CN(C(=O)C(=O)O)c2ccc(-c3ccc(C(F)(F)F)cc3)cc2)cc1 [compound 24, N-[4-(tert-butyl)benzyl]-N-[4′-(trifluoromethyl)phenyl-4-yl]oxamic Acid] |  |  |  |  |  | Inhibition Rate of Human PAI-1 Activity (%) ([1]; compound 5 μM): 7%; Inhibition Rate of Human PAI-1 Activity (%) ([1]; compound 10 μM): 35%; Inhibition Rate of Human PAI-1 Activity (%) ([1]; compound 25 μM): 74% |
| O=C(O)C(=O)N(Cc1ccc(C(F)(F)F)cc1)c1ccc(-c2ccc(OC(F)(F)F)cc2)cc1 [compound 34, N-[4′-(trifluoromethoxy)biphenyl-4-yl]-N-[4-(trifluoromethyl)benzyl]oxamic Acid] | 15 | 38 |  |  |  | inhibition at 25 µM [1]: 81% |
| CC(C)(C)c1ccccc1N(C(=O)C(=O)O)c1ccccc1-c1ccc(OC(F)(F)F)cc1 [compound 37, N-[2-(tert-butyl)phenyl]-N-[4′-(trifluoromethoxy)biphenyl-2-yl]oxamic Acid] | 25 | 56 |  |  |  | inhibition at 25 µM [1]: 96% |
| CCC(CC)Oc1ccc(-c2ccc(OC(F)(F)F)cc2)cc1N(Cc1ccc(C(C)(C)C)cc1)C(=O)C(=O)O [compound 79, N-[4-(tert-butyl)benzyl]-N-[4-(1-ethylpropoxy)-4′-(trifluoromethoxy)biphenyl-3-yl]oxamic Acid] |  |  | 8 | 0.74 | 1.18 | inhibition at 3 µM [3]: > 99%; inhibition at 10 µM ([4]; pH 7.4, read-out: Inhibition Rate of Rat PAI-1 Activity (%)): > 99% |
| CCCCc1ccc(CN(C(=O)C(=O)O)c2ccc(-c3ccc(C(C)(C)C)cc3)cc2)cc1 [compound 86, N-(4-butylbenzyl)-N-[4′-(tert-butyl)biphenyl-4-yl]oxamic Acid] |  |  | 0 | 0.73 | 1.39 | inhibition at 0.3 µM [2]: 0%; inhibition at 3 µM [3]: > 99% |
| CCN(CC)c1ccc(N(Cc2ccc(C(C)(C)C)cc2)C(=O)C(=O)O)c(-c2ccc(OC(F)(F)F)cc2)c1 [compound 88, N-[4-(tert-butyl)benzyl]-N-[5-diethylamino-4′-(trifluoromethoxy)biphenyl-2-yl]oxamic Acid] |  |  | 0 | 1.13 | 1.89 | inhibition at 0.3 µM [2]: 0% |
